# How the values were obtained:
# aged-impaired (AI) rats [1] = test: Morris water maze behavioral task (Example 109); assay type: in vivo, rat; settings: 100 μg ICV
# Method: The effects of 6,6 dimethyl-3-(3-hydroxypropyl)thio-1-(thiazol-2-yl)-6,7-dihydro-2-benzothiophen-4(5H)-one on the in vivo spatial memory retention of aged-impaired (AI) rats were assessed in a Morris water maze behavioral task. A water maze is a pool surrounded with a novel set of patterns relative to the maze.
# Cognitively impaired aged rats were implanted unilaterally with a cannula into the lateral ventricle. Stereotaxic coordinates were 1.0 mm posterior to bregma, 1.5 mm lateral to midline, and 3.5 mm ventral to the skull surface. After about a week of recovery, the rats were pre-trained in a water maze for 2 days (6 trials per day) to locate a submerged escape platform hidden underneath the surface of the pool, in which the escape platform location varied from day to day. No intracerebroventricular (ICV) infusion was given during pre-training.
# After pre-training, rats received ICV infusion of either 100 μg 6,6 dimethyl-3-(3-hydroxypropyl)thio-1-(thiazol-2-yl)-6,7-dihydro-2-benzothiophen-4(5H)-one (n=6) in 5 μl DMSO or vehicle DMSO (n=5) 40 min prior to water maze training and testing. Training consisted of 8 trials per day for 2 days where the hidden escape platform remained in the same location. Rats were given 60 seconds to locate the platform with a 60 seconds inter-trial interval. The rats were given a probe test (120 seconds) 24 hr after the end of training where the escape platform was removed. During the training, there were 4 blocks, where each block had 4 training trials.
# During a test trial 24 hr after training, the escape platform was removed. The search/swim pattern of the rats was used to measure whether the rats remember where the escape platform was located during pre-trial training in order to test for the long-term memory of the rats. In this trial, “target annulus” is a designated area 1.5 times the size of the escape platform around the area where the platform was located during pre-trial training. “Opposite annulus” is a control area of the same size as the size of the target annulus, which is located opposite to the target annulus in the pool. If the rats had good long term memory, they would tend to search in the area surrounding the location where the platform was during the pre-trial training (i.e., the “target” annulus; and not the “opposite” annulus). “Time in annulus” is the amount of time in seconds that the rat spent in the target or opposite annulus area. “Number (#) of crossings” in annulus is the number of times the rat swam across the target or opposite annulus area.
# α5β3γ2 GABAA receptors = target: T1, α5β3γ2 GABAA receptors (Homo sapiens, UniProt P18507+P31644); test: Binding activity of test compounds on GABAAR ([3H]Ro15-1788 inhibition, Ltk cell membranes)
# T1 construct: membranes
# Method: The binding was performed on Ltk cells stably expressing GABAA receptors: α1β1γ2, α2β3γ2, α3β3γ2 and α5β3γ2 (provided by Merck Co., NJ, USA). Cells were seeded in 100 mm culture plates in DMEM/F12 medium containing 10% serum and antibiotics in 5% C02 and allowed to grow for 1-2 days. GABAAR expression was then induced by dexamethasone as follows: 0.5 μM for 1 day for α5 containing and 2 μM for 3 days for α1, α2 and α3 containing GABAARs. After induction, cells were collected by scraping into Dulbecco's Phosphate buffered saline (DPBS, pH 7.4, Invitrogen, Carlsbad, Calif., USA) and centrifuged at 150×g for 10 min. The pellet was washed twice by re-suspension and centrifugation. The cell pellets from at least 5 different preps were combined, suspended in the binding assay buffer (50 mM KH2PO4; 1 mM EDTA; 0.2 M KCl, pH 7.4) and membranes prepared by sonication (3-5 times, 30 sec) using Branson Sonifier 150 (G.Heinmann, Germany). Protein content was determined using BCA assay (Bio-Rad Labs, Reinach, Switzerland) with Bovine Serum Albumin (Sigma Aldrich, St. Louis, Mo., USA) as the standard. Aliquots were prepared and stored at −20° C. for further use in binding assays.
# Saturation binding curves were obtained by incubating membranes with increasing concentrations (0.01-8 nM) of [^3H]Ro15-1788 (Flumazepil, 75-85 Ci/mmol, PerkinElmer, MA, USA), with nonspecific binding measured in the presence of 10 μM diazepam.
# All binding assays were performed for 1 h at 4° C. in assay buffer. The total assay volume was 0.5 ml containing 0.2 mg/ml protein for α5 and 0.4 mg/ml for α1, α2, and α3 containing GABAAR membranes. Incubations were terminated by filtration through GF/B filters using a 24-Cell Harvestor (Brandel, Gaithersburg, Md., USA) followed by 3 washes with ice-cold assay buffer. Filters were transferred to scintillation vials, 5 ml scintillation liquid added, vortex-mixed and kept in dark. Next day, radioactivity was obtained using a scintillation counter (Beckman Coulter, Brea, Calif., USA). All assays were performed in triplicate.
# Saturation and inhibition curves were obtained using GraphPad Prism software (GraphPad Software, Inc., CA, USA).
# GABAA receptors (α5β2γ2) = target: T2, GABAA receptors (α5β2γ2) (Homo sapiens, UniProt P18507+P31644); test: Positive allosteric modulator activity, potentiation of EC20 GABA current in oocytes; assay type: cell-based; settings: read-out: GABA α5 functional potentiation
# T2 construct: expressed in transfected cells; host or cells: oocytes injected with a mix of alpha, beta and gamma cDNA (1:1:10 by weight)
# Method: On day 1, 1 ng/32 nL of GABAA […] cDNA was injected into one oocyte. Test starts on day 2. The cDNA injected to the oocytes was a mix of alpha, beta and gamma, their ratio is 1:1:10 (by weight) and the total weight of the mixed 3 subunits to be injected in one oocyte was 1 ng in 32 nl volume. The injected oocytes can also be tested on day 3. In such case, the cDNA amount injected to the oocytes should be reduced by 20%.
# 1). 8 oocytes were placed in 8 chambers of OpusXpress and superfused with Modified Barth's Saline (MBS) at 3 mL/min. Glass electrodes back-filled with 3M KCl (0.5-3 megaohms) were used.
# 3). […] Oocytes were washed with MBS for 5-10 min.
# 2). […] Divide Itest by IGABA to obtain potentiation (%).
# 3). Discard all tested oocytes, new oocytes were used and the above steps 1) and 2) were repeated to test second concentration of the same compound. Each oocyte was used for only one concentration test for a single test compound. The steps were repeated for other test compounds.
# [2] = target: T3, α5-containing GABAA receptor (Rattus norvegicus, UniProt P18508+P19969); assay type: in vivo; settings: i.v.; for effect on Ro 15-4513 binding in hippocampus: 0.01-10 mg/kg
# T3 construct: occupancy in the hippocampus (a region of high GABAAα5 receptor density); from tissue; host or cells: rat brain in vivo; hippocampus versus cerebellum
# [3] = tested on: α5-containing GABAA receptor; assay type: in vivo, rat; settings: 0.01-10 mg/kg, i.v.
# GABAAα5 receptor = target: T4, GABAAα5 receptor (Rattus norvegicus, UniProt P18508+P19969); test: GABAA α5 receptor occupancy with Ro 15-4513 tracer (Example 107B); assay type: in vivo, Long Evans rats
# T4 construct: occupancy in the hippocampus (a region of high GABAAα5 receptor density); from tissue; host or cells: rat brain in vivo; hippocampus versus cerebellum
# Text: Food and water were available ad libitum.
# MAM-treated rats = settings: cited from earlier work
# aged-impaired (AI) rats [4] = test: Radial Arm Maze (RAM) behavioral task, four-hour delay (Example 108); assay type: in vivo, rat
# Method: The same experiment was repeated using the same vehicle control and doses of ethyl 3-methoxy-7-methyl-9H-benzo[f]imidazo[1,5-a][1,2,4]triazolo[4,3-d][1,4]diazepine-10-carboxylate, where the vehicle control was tested 5 times, the 3 mg/kg dose of ethyl 3-methoxy-7-methyl-9H-benzo[f]imidazo[1,5-a][1,2,4]triazolo[4,3-d][1,4]diazepine-10-carboxylate was tested 4 times, and the other doses of ethyl 3-methoxy-7-methyl-9H-benzo[f]imidazo[1,5-a][1,2,4]triazolo[4,3-d][1,4]diazepine-10-carboxylate were tested twice.
# Parametric statistics (paired t-tests) was used to compare the retention test performance of the AI rats in the four-hour delay version of the RAM task in the context of different doses of ethyl 3-methoxy-7-methyl-9H-benzo[f]imidazo[1,5-a][1,2,4]triazolo[4,3-d][1,4]diazepine-10-carboxylate and vehicle control (see FIG. 5).
# [5] = probe test 24 hr after training
# [6] = vehicle then tracer 1 μg/kg i.v.
# T2 sequence (P31644 32-462): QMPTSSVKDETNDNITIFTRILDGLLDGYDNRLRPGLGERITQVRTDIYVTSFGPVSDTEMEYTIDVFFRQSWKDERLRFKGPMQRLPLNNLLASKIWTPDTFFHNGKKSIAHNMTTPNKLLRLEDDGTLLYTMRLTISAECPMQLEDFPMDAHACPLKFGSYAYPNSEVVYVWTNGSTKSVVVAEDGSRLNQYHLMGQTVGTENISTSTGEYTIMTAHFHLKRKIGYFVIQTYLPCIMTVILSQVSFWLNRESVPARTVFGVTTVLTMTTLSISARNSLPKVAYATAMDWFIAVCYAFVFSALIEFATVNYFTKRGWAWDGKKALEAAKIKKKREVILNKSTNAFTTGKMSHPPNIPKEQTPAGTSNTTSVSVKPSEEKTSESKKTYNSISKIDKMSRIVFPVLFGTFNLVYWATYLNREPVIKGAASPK
# T2 sequence (P47870 25-512 partner limits assumed): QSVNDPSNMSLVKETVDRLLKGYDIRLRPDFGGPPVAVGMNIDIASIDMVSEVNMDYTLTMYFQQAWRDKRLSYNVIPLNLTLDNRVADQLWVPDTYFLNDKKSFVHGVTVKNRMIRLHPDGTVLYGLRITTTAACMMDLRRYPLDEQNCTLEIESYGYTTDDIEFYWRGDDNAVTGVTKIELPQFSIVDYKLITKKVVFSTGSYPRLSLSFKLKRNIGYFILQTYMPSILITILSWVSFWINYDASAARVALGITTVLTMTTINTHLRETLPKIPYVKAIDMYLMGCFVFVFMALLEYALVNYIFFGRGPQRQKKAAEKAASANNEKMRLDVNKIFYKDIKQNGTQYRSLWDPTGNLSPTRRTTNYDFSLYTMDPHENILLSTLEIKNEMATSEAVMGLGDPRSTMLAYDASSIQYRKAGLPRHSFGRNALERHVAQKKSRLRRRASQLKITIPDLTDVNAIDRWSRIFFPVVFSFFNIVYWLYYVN
# T2 sequence (P18507 40-475): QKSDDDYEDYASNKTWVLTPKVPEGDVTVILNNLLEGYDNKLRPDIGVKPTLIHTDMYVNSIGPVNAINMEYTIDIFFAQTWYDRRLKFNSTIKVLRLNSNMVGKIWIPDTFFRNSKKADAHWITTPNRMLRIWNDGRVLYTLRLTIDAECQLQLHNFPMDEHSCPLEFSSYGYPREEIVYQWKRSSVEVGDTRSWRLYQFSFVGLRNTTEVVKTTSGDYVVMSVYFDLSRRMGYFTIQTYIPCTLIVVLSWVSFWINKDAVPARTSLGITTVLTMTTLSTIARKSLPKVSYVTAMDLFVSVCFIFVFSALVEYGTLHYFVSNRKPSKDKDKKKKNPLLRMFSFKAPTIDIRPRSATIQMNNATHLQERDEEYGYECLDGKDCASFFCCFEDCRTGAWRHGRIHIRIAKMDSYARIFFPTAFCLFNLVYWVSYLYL
# T1 sequence (P31644 32-462): as the sequence (P31644 32-462) above
# T1 sequence (P28472 26-473 partner): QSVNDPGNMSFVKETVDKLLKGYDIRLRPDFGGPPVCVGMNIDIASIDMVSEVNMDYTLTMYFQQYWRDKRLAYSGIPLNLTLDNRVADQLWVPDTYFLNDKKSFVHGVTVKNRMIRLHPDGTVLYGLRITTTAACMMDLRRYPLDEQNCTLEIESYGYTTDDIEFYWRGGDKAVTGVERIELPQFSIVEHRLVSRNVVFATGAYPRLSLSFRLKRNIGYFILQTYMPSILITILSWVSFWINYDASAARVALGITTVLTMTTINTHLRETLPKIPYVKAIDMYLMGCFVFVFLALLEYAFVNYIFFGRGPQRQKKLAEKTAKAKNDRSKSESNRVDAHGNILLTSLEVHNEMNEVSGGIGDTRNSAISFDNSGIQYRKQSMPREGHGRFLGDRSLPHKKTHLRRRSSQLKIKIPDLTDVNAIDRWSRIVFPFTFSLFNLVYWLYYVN
# T1 sequence (P18507 40-475): as the sequence (P18507 40-475) above
# T3 sequence (P19969 32-464 limits assumed): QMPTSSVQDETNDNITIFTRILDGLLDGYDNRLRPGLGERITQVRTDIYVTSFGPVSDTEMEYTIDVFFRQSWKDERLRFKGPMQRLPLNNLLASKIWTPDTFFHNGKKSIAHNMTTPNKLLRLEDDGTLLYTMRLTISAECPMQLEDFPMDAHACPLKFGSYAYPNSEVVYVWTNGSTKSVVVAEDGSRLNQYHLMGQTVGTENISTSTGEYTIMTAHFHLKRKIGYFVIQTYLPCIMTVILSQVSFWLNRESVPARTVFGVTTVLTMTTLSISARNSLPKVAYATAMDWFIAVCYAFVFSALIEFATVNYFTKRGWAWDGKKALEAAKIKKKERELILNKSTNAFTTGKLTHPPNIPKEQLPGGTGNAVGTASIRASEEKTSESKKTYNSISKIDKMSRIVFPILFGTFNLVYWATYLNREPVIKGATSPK
# T3 sequence (P18508 39-466): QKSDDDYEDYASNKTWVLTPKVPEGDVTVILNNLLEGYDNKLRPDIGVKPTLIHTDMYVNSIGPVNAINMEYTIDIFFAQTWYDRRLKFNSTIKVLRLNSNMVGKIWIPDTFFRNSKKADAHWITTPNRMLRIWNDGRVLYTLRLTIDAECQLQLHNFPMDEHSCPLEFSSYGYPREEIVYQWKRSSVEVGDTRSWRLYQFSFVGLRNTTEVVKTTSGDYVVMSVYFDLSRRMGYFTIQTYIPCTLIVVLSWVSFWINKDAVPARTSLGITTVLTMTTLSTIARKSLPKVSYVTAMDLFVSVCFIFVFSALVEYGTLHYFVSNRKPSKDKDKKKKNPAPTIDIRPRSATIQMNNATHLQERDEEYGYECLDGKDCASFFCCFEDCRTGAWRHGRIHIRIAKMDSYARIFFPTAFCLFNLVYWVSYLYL
# T4 sequence (P19969 32-464 limits assumed): as the sequence (P19969 32-464 limits assumed) above
# T4 sequence (P18508 39-466): as the sequence (P18508 39-466) above
SMILES,Ki (α5β3γ2 GABAA receptors) [nM],activation at 0.1 µM (GABAA receptors (α5β2γ2)) [%],other results
"CC1(C)CC(=O)c2c(SCCCO)sc(-c3nccs3)c2C1 [6,6 dimethyl-3-(3-hydroxypropyl)thio-1-(thiazol-2-yl)-6,7-dihydro-2-benzothiophen-4(5H)-one]",–,–,learning of the water maze task (aged-impaired (AI) rats [1]): improved the learning; long-term memory in the water maze task (aged-impaired (AI) rats [1]): improved the long-term memory; number of crossings of target annulus compared to opposite annulus (aged-impaired (AI) rats [1]; [5]): more often; time in target annulus compared to opposite annulus (aged-impaired (AI) rats [1]; [5]): spent significantly more time in the target annulus; time to find the escape platform (escape latency) (aged-impaired (AI) rats [1]; training block 1): about 24 seconds; time to find the escape platform (escape latency) (aged-impaired (AI) rats [1]; training block 4): about 9.6 seconds
Cc1nnn2c1Cc1c(-c3noc(C(C)C)n3)ncn1-c1ccc(F)cc1-2 [Compound 149],< 99,> 50,–
Cc1nnn2c1Cc1c(C(=O)OC(C)C)ncn1-c1ccccc1-2 [Compound 153],< 99,20 to 49,–
CCc1nc(-c2ncn3c2Cc2c(C)nnn2-c2cc(F)ccc2-3)no1 [Compound 155],< 99,20 to 49,–
CCc1nc(-c2ncn3c2Cn2c(COc4ccccc4)nnc2-c2cc(F)ccc2-3)no1 [Compound 158],< 99,20 to 49,–
Cc1nnn2c1Cc1c(-c3noc(C(C)(C)C)n3)ncn1-c1ccc(F)cc1-2 [Compound 160],< 99,> 50,–
COc1ccc2c(c1)-c1nnc(COc3ccccc3)n1Cc1c(-c3noc(C)n3)ncn1-2 [Compound 162],< 99,20 to 49,–
COc1ccc2c(c1)-c1nnc(COc3ccc(F)cc3)n1Cc1c(-c3noc(C)n3)ncn1-2 [Compound 163],< 99,20 to 49,–
COc1ccc2c(c1)-c1nnc(COc3ccccc3)n1Cc1c(-c3noc(C(C)C)n3)ncn1-2 [Compound 171],< 99,> 50,–
COc1ccc2c(c1)-c1nnc(COc3ccc(F)cc3)n1Cc1c(-c3noc(C(C)C)n3)ncn1-2 [Compound 172],< 99,> 50,–
CCOCc1nnc2n1Cc1c(-c3noc(C(C)C)n3)ncn1-c1ccc(OC)cc1-2 [Compound 173],< 99,> 50,–
COc1ccc2c(c1)-c1nnc(COc3ccccc3F)n1Cc1c(-c3noc(C(C)C)n3)ncn1-2 [Compound 174],< 99,> 50,–
COc1ccc2c(c1)-c1nnc(COc3ccccc3Cl)n1Cc1c(-c3noc(C(C)C)n3)ncn1-2 [Compound 175],< 99,20 to 49,–
COc1ccc2c(c1)-c1nnc(COc3cccnc3)n1Cc1c(-c3noc(C(C)C)n3)ncn1-2 [Compound 176],< 99,> 50,–
COc1ccc2c(c1)-c1nnc(COc3cccc4ccccc34)n1Cc1c(-c3noc(C(C)C)n3)ncn1-2 [Compound 177],< 99,> 50,–
COc1ccc2c(c1)-c1nnc(COC3CCCC3)n1Cc1c(-c3noc(C(C)C)n3)ncn1-2 [Compound 178],< 99,> 50,–
COc1ccc2c(c1)-c1nnc(COc3cccc(F)c3)n1Cc1c(-c3noc(C(C)C)n3)ncn1-2 [Compound 179],< 99,> 50,–
"CCOC(=O)c1ncn2c1Cn1c(C)nnc1-c1cc(OC)ccc1-2 [Ethyl 3-methoxy-7-methyl-9H-benzo[f]imidazo[1,5-a][1,2,4]tri]",–,–,effect on Ro 15-4513 binding in hippocampus [2]: blocked the binding; effect on cerebellum levels of Ro 15-4513 [3]: did not affect binding
CCOC(=O)c1ncn2c1CN(C)C(=O)c1cc(N=[N+]=[N-])ccc1-2 [Ro 15-4513],–,–,Ro 15-4513 level in hippocampus compared with cerebellum (GABAAα5 receptor; tracer 1 μg/kg i.v.): > 5 fold; level of Ro 15-4513 in cerebellum (GABAAα5 receptor; [6]): 0.36 ± 0.02 ng/g; level of Ro 15-4513 in hippocampus (GABAAα5 receptor; [6]): 1.93 ± 0.05 ng/g
C#Cc1ccc2c(c1)C(c1ccccc1F)=N[C@H](C)c1c(C(=O)OCC)ncn1-2 [SH-053-2′F—R—CH3],–,–,"increased locomotor response to amphetamine in MAM-treated rats (MAM-treated rats; rat, in vivo): is reduced; cortical-evoked responses of HPC neurons (MAM-treated rats; saline-treated and MAM-treated animals): diminished cortical-evoked responses"
"CCOC(=O)c1ncn2c1Cn1c(C)nnc1-c1cc(OC)ccc1-2 [ethyl 3-methoxy-7-methyl-9H-benzo[f]imidazo[1,5-a][1,2,4]tri]",–,–,"memory performance relative to vehicle control (aged-impaired (AI) rats [4]; 3 mg/kg, t(7)=4.13, p=0.004, or t(7)=3.08, p=0.018): significantly improved memory performance; memory performance relative to vehicle control (aged-impaired (AI) rats [4]; 10 mg/kg, t(7)=2.82, p=0.026): significantly improved memory performance; effect on Ro 15-4513 binding in hippocampus [2]: reduced Ro 15-4513 binding in hippocampus; α5-containing GABAA receptor occupancy ([2]; 10 mg/kg): > 90%; effect on cerebellum levels of Ro 15-4513 [3]: without affecting"

# From US11142529B2 (priority 2013, dated 2021)
